The values below come from US10196359B2, “2-alkyloxy benzene formyl arylamine compound and pharmaceutical use thereof” (FUDAN UNIVERSITY, priority 2014, dated 2019).

The structures appear in SMILES notation. pIC50: −log10 of the molar value. Read-outs that look alike come from different tables or passages of the source.

In data set [1] the target is T1, Sphingomyelin Synthase 2 (SMS2) (Homo sapiens, UniProt Q8NHU3).
T1 construct: made in house; used as homogenate
T1 sequence (Q8NHU3 1-365): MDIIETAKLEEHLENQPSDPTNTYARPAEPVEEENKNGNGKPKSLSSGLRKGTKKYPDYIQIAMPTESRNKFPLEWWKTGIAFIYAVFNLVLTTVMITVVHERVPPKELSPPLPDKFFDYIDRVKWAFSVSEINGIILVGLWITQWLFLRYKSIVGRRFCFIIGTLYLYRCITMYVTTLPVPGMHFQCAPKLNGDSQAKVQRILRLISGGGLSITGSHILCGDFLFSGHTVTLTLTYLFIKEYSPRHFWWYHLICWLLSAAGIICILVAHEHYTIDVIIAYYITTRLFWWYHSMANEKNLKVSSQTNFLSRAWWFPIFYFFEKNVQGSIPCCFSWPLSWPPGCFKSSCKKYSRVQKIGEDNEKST
Put plainly: In vitro inhibition of sphingomyelin synthase 2, HPLC fluorogenic quantitative detecting method (C6-NBD-ceramide to C6-NBD-SM, SMS2 high-expressed insect cell homogenate). The data set is classed as biochemical. As to conditions: for pIC50: read-out: SMS2 Median Inhibitory Concentration IC50. The source says: The second aim of the present invention is to show the use of 2-alkoxy benzene formyl arylamines in preparing SMS small-molecule inhibitors. This invention evaluate SMS inhibitory activity of 2-alkoxy benzene formyl arylamines as scheme I through HPLC fluorogenic quantitative detecting method reported (Xiaodong Deng; Hong Sun; et al. Analytical Letters, 2012, 45:12, 1581-1589), which can make it possible to calculate the catalytic activity difference of SMS treated with inhibitors or not through content changes of NBD-ceramide and NBD-sphingomyelin.
9. The organic solvents were purchased from Shanghai Sinopharm Reagent Company; methanol is of HPLC grade; water is ultrapure water filtrated by Milli-Q pump and deionized and ultrafiltrated by 0.22 μm ultrafiltration membrane. Other biological supplies are purchased in domestic companies. 10. Preparation of SMS homogenate extraction buffer (Buffer1): (50 mM Tris hydrochloride, pH 7.4, 5% anhydrous sucrose, 1 mM ethylenediaminetetraacetic acid) 1.2114 g tris(hydroxymethyl)aminomethane hydrochloride (Tris-HCl) was dissolved in 100 ml distilled water. Then 84 ml 0.1 mol/L hydrochloric acid was added. Constant volume to 200 ml. Finally, 10 g sucrose and 58.45 mg EDTA were dissolved in the mixture. 11. Preparation of SMS test buffer […]: (100 mM Hepes, 30 mM MnCl2, 3% fatty acid free BSA): 1.1916 g 4-(2-hydroxyethyl)-1-peperazineethanesulfonic acid (Hepes), 0.2969 g MnCl2.4H2O and 0.3 g fatty acid free bovine serum albumin were dissolved in distilled water then constant volume to 50 ml. 12. Preparation of under tested compound solution: To each accurate weighed compound for 1˜2 mg, an appropriate amount of DMSO was added to formulate a stock solution of 6 mM precisely. To a certain volume of the DMSO stock solution of the test compound, the appropriate volume of DMSO was added to dilute the solution to the desired concentration. 13. SMS2 high-expressed insect cell homogenate was prepared by Xu Yanhui group from Institutes of Biomedical Sciences, Fudan University. Part 1 Activity Assay for Inhibition of 2-Alkoxy-Benzoyl Aromatic Amines to Sphingomyelin Synthase 2
250 μL tri-distilled water, 30 μL Buffer2, 4 μL SMS2 high-expressed insect cell homogenate (total protein content is 0.5 μg/μL) and 10 μL DMSO or DMSO solution of under tested compound were added to 1.5 mL eppendorf tube, vortex mixed for 30 seconds and then incubated in a 37° C. water bath for 0.5 h. 3 μL ethanol solution of DMPC (40 mM) and 3 μL ethanol solution of C6-NBD-Ceramide (1.16 mM) were added, vortex mixed for 30 seconds, and then incubate in a 37° C. water bath for 2.0 hours. To it 600 μL anhydrous ethanol was added vortex mixed for 1 minute and centrifuged 10 minutes in 10000 rpm and 600 μL supernatant was taken out and stored at 4° C. for HPLC analysis.
Using the same HPLC fluorogenic quantitative detecting method as reference (Xiaodong Deng; Hong Sun; et al. Analytical Letters, 2012, 45:12, 1581-1589) to analysize samples obtained above. Analysize and record peak areas of C6-NBD-SM (Asm) and C6-NBD-Ceramide (Acer) of each sample from blank group, positive control group (compound D2) and under tested compound group. The data were parallelly determined for 3 times. Calculate inhibition rate from the formula below: […]
The DMSO stock solution of under tested compound (6 mM) was diluted stepwise into five concentration gradient. 10 μL solution of each concentration was added into the trial system to prepare samples with the method mentioned in the first step of application case 12. The Asm values of the five concentration solution of tested compound were measured, and the inhibition rate under the five concentration were calculated and fitted to obtain median inhibitory concentration (IC50). Each compound was measured three parallel groups. SMS2 median inhibitory concentration of Scheme I-1˜I-60 are listed below in Table 1: […]

Setting [2] is: at 10 μM, read-out: inhibition rate.
The mark [3] stands for this setting: five concentrations, three parallel groups, experimental value.

Regarding `O=C(Nc1cccnc1)c1ccccc1OCc1c(F)cccc1Cl` [Scheme I-32, 2-((2-chloro-6-fluoro)benzyloxy)-N-(pyridin-3-yl) benzamide], in data set [1], the pIC50 was 5.82. Also, the inhibition at 10 µM in data set [1] (read-out: inhibition rate) was 82.3%.

With `O=C(Nc1cccnc1)c1ccccc1OCc1ccccc1OCCCCCl` [Scheme I-34, 2-(2-(4-chlorobutoxy)benzyloxy)-N-(pyridin-3-yl) benzamide], in data set [1] (setting [2]), the inhibition at 10 µM was 85.5%. Besides, the pIC50 in data set [1] (setting [3]) is 5.85.

For the molecule `O=C(Nc1cccnc1)c1ccccc1OCc1ccccc1OCCCCCCl` [Scheme I-35, 2-(2-(5-chloro-pentoxy)benzyloxy)-N-(pyridin-3-yl) benzamide], the inhibition at 10 µM in data set [1] (setting [2]) turned out to be 91.3%. The pIC50 in data set [1] (setting [3]) was 6.15.

`O=C(Nc1cccnc1)c1ccccc1OCc1ccccc1OCCCCCCCl` [Scheme I-36, 2-(2-(6-Chloro-hexyloxy)benzyloxy)-N-(pyridin-3-yl) benzamide]: the inhibition at 10 µM in data set [1] (setting [2]) is 91.5%. Moreover, in data set [1] (setting [3]), the pIC50 was 6.30.

`CCCCCCOc1ccccc1COc1ccccc1C(=O)Nc1cccnc1` [Scheme I-37, 2-((2-hexyloxy)benzyloxy)-N-(pyridin-3-yl) benzamide] came in with an inhibition rate in data set [1] (at 10 μM) of 90.2%. Besides, the pIC50 in data set [1] (setting [3]) was 6.15.

Regarding `CCCCCCCOc1ccccc1COc1ccccc1C(=O)Nc1cccnc1` [Scheme I-38, 2-((2-heptyloxy)benzyloxy)-N-(pyridin-3-yl) benzamide], in data set [1] (setting [2]), the inhibition at 10 µM was found to be 90.5%. In addition, in data set [1] (setting [3]), the pIC50 is 6.30.

With `O=C(Nc1cccnc1)c1ccccc1OCc1cccc(C(F)(F)F)c1` [Scheme I-41, 2-((3-trifluoromethyl)benzyloxy)-N-(pyridin-3-yl) benzamide], the inhibition at 10 µM in data set [1] (setting [2]) was determined as 10%. Also, the pIC50 in data set [1] (setting [3]) was under 4.00.

Regarding `O=C(Nc1cccnc1)c1ccccc1OCc1ccccc1C(F)(F)F` [Scheme I-42, 2-((2-trifluoromethyl)benzyloxy)-N-(pyridin-3-yl) benzamide], the inhibition rate in data set [1] (at 5 μM) is 65.5%. Also, the pIC50 in data set [1] (setting [3]) is 5.68.

In data set [1] (at 5 μM), `Cc1ccc(Cl)cc1COc1ccccc1C(=O)Nc1cccnc1` [Scheme I-43, 2-((5-chloro-2-methyl)benzyloxy)-N-(pyridin-3-yl) benzamide] displayed an inhibition rate of 74.8%. The pIC50 in data set [1] (setting [3]) is 5.96.

As for `Cc1c(Cl)cccc1COc1ccccc1C(=O)Nc1cccnc1` [Scheme I-44, 2-((3-chloro-2-methyl)benzyloxy)-N-(pyridin-3-yl) benzamide], the inhibition rate in data set [1] (at 5 μM) is 47.0%. For the same molecule, the pIC50 in data set [1] (setting [3]) was 5.42.

In the case of `O=C(Nc1cccnc1)c1ccccc1OCc1cccc2ccccc12` [Scheme I-45, 2-((naphthalen-1-yl)methoxy)-N-(pyridin-3-yl) benzamide], the melting point was in the range of 91.4 to 93.9 °C. Also, the inhibition at 10 µM in data set [1] (setting [2]) was found to be 78%. The pIC50 in data set [1] (setting [3]) was 5.59.

Regarding `O=C(O)c1ccc(COc2ccccc2C(=O)Nc2cccnc2)cc1` [Scheme I-46, 4-((2-(pyridin-3-ylcarbamoyl)phenoxy)methyl) benzoic acid], the inhibition at 10 µM in data set [1] (setting [2]) stood at 2.6%. In addition, in data set [1] (setting [3]), the pIC50 is under 4.00.

For the molecule `O=C(O)COc1ccccc1COc1ccccc1C(=O)Nc1cccnc1` [Scheme I-47, 2-(2-((2-(pyridin-3-ylcarbamoyl)phenoxy)methyl)phenoxy) acetic acid], in data set [1] (setting [2]), the inhibition at 10 µM stood at 7.4%. Also, in data set [1] (setting [3]), the pIC50 was under 4.00.

Take `O=C(O)COc1cccc(COc2ccccc2C(=O)Nc2cccnc2)c1` [Scheme I-48, 2-(3-((2-(pyridin-3-ylcarbamoyl)phenoxy)methyl)phenoxy) acetic acid]: the inhibition at 10 µM in data set [1] (setting [2]) turned out to be 3%. In addition, the pIC50 in data set [1] (setting [3]) was under 4.00.

As to `COCCCOc1ccc(Cl)cc1COc1ccccc1C(=O)Nc1cccnc1` [Scheme I-49, 2-((5-chloro-2-(3-methoxy-propoxy))benzyloxy)-N-(pyridin-3-yl) benzamide], the inhibition at 10 µM in data set [1] (setting [2]) is 75.3%. Further, in data set [1] (setting [3]), the pIC50 is 5.39.

Turning to `COCCOc1ccc(Cl)cc1COc1ccccc1C(=O)Nc1cccnc1` [Scheme I-50, 2-((5-chloro-2-(2-methoxyethoxy))benzyloxy)-N-(pyridin-3-yl) benzamide], the inhibition at 10 µM in data set [1] (setting [2]) came out at 54.2%. For the same molecule, the pIC50 in data set [1] (setting [3]) is 4.94.

Regarding `O=C(Nc1cccnc1)c1ccccc1OCc1cc(Cl)ccc1OCCN1CCOCC1` [Scheme I-51, 2-((5-chloro-2-(2-morpholino-ethoxy))benzyloxy)-N-(pyridin-3-yl) benzamide], in data set [1] (setting [2]), the inhibition at 10 µM was found to be 24.9%. For the same molecule, the pIC50 in data set [1] (setting [3]) is under 4.30.

Take `O=C(Nc1ccccn1)c1ccccc1OCc1ccccc1` [Scheme I-52, 2-benzyloxy-N-(pyridin-2-yl) benzamide]: the inhibition at 100 µM in data set [1] (at 100 μM, read-out: inhibition rate) was 60.1%. Also, the pIC50 in data set [1] (setting [3]) was 4.93.

`O=C(Nc1cncnc1)c1ccccc1OCc1ccccc1` [Scheme I-53, 2-benzyloxy-N-(pyrimidin-5-yl) benzamide]: the melting point is 112.3 to 114.9 °C. Also, the inhibition at 10 µM in data set [1] (setting [2]) came to 38.4%. Moreover, the pIC50 in data set [1] (setting [3]) was under 4.60.

As to `O=C(Nc1cccnc1)c1cc(Cl)ccc1OCc1c(Cl)cccc1Cl` [Scheme I-54, 5-chloro-2-((2,6-dichlorophenyl)benzyloxy)-N-(pyridin-3-yl) benzamide], the inhibition at 10 µM in data set [1] (setting [2]) was 42.3%. In addition, the pIC50 in data set [1] (setting [3]) is under 4.60.

For the molecule `O=C(Nc1cccnc1)c1cc(Cl)ccc1OCc1cc(F)ccc1Cl` [Scheme I-55, 5-chloro-2-((2-chloro-5-fluoro)benzyloxy)-N-(pyridin-3-yl) benzamide], the inhibition at 10 µM in data set [1] (setting [2]) worked out at 31.7%. Moreover, the pIC50 in data set [1] (setting [3]) is under 4.60.

For the molecule `O=C(Nc1cccnc1)c1ccc(Cl)cc1OCc1ccccc1Cl` [Scheme I-56, 4-Chloro-2-(2-chloro-benzyloxy)-N-(pyridin-3-yl) benzamide], in data set [1] (setting [2]), the inhibition at 10 µM was determined as 20%. For the same molecule, in data set [1] (setting [3]), the pIC50 is under 4.30.

`O=C(Nc1cccnc1)c1cc([N+](=O)[O-])ccc1OCc1ccccc1Cl` [Scheme I-57, 2-(2-chloro-benzyloxy)-5-nitro-N-(pyridin-3-yl) benzamide]: in data set [1] (setting [2]), the inhibition at 10 µM stood at 1.7%. In data set [1] (setting [3]), the pIC50 was under 4.00.

For the molecule `O=C(Nc1cccnc1)c1ccc(Br)cc1OCc1ccccc1Cl` [Scheme I-58, 4-bromo-2-(2-chloro-benzyloxy)-N-(pyridin-3-yl) benzamide], the inhibition at 10 µM in data set [1] (setting [2]) turned out to be 19.4%. For the same molecule, in data set [1] (setting [3]), the pIC50 was under 4.30.

As for `COc1ccc(OCc2ccccc2Cl)c(C(=O)Nc2cccnc2)c1` [Scheme I-59, 2-(2-chloro-benzyloxy)-5-methoxy-N-(pyridin-3-yl) benzamide], in data set [1] (setting [2]), the inhibition at 10 µM stood at 7.2%. Besides, the pIC50 in data set [1] (setting [3]) was under 4.00.

Molecule `COc1ccc(C(=O)Nc2cccnc2)c(OCc2ccccc2Cl)c1` [Scheme I-60, 2-(2-chloro-benzyloxy)-4-methoxy-N-(pyridin-3-yl) benzamide] returned a melting point of 129.2 to 131.9 °C. The inhibition at 10 µM in data set [1] (setting [2]) is 13.3%. In addition, in data set [1] (setting [3]), the pIC50 is under 4.30.
